The values below are quoted from earlier work in patent US20230181690A1, “METHODS FOR TREATING ANEMIA USING AN ACTRIIB LIGAND TRAP AND FEDRATINIB” (Celgene Corporation, priority 2020, published 2023).

Data set [1] concerns cell models expressing mutationally active JAK2 or FLT3.
For data set [2] the test system is unchanged. The source holds these as a separate data set.
For data set [3], the system named is JAK2V617F-driven myeloproliferative disease. The conditions noted are these: mouse, in vivo.
Data set [4] has as its system intermediate-2 or high-risk MF. The conditions noted are these: previously untreated patients with intermediate-2 or high-risk MF.
The subject of data set [5] is MPN-associated myelofibrosis.
Another data set addresses T1, GDF-11 (Homo sapiens, UniProt O95390).
T1 sequence (O95390 299-407): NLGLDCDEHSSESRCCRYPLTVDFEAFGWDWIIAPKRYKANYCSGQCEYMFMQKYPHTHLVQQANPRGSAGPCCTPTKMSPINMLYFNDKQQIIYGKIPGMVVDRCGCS

On to `Cc1cnc(Nc2ccc(OCCN3CCCC3)cc2)nc1Nc1cccc(S(=O)(=O)NC(C)(C)C)c1` [fedratinib, N-tert-butyl-3-[(5-methyl-2-{4-[2-(pyrrolidin-1-yl)ethoxy]anilino}pyrimidin-4-yl)amino]benzenesulfonamide], for which the “potency for JAK2 over family members JAK1, JAK3 and TYK2” value in the data set on Janus Kinase 2 (JAK2) is “higher potency for JAK2 over family members JAK1, JAK3 and tyrosine kinase 2 (TYK2)”. Besides, the “phosphorylation of STAT3/5 proteins” value in data set [1] was “reduced phosphorylation”. In data set [2], the cell proliferation result was “inhibited cell proliferation”. Also, in data set [3], the disease-associated symptoms entry was “improved disease-associated symptoms, including reduction of white blood cells, hematocrit, splenomegaly, and fibrosis”; the “phosphorylation of STAT3/5” value is “blocked phosphorylation of STAT3/5”. In addition, the clinical efficacy entry in data set [4] is recorded as “demonstrated clinical efficacy”. Further, the “thrombocytopenia and anemia associated with therapy” value in data set [5] (patients) is “can be associated with moderate to severe thrombocytopenia and anemia”.

On to `N#CC[C@H](C1CCCC1)n1cc(-c2ncnc3[nH]ccc23)cn1` [ruxolitinib], for which, in data set [5] (patients with MPN-associated myelofibrosis), the exacerbation of anemia result is reported as “can exacerbate the anemia”.

B1: ActRIIB(20-119)-Fc: ActRIIB-Fc fusion protein containing amino acids 20-119 of SEQ ID NO:14 (SEQ ID NO:18) (protein)
chain: GRGEAETRECIYYNANWELERTNQSGLERCEGEQDKRLHCYASWRNSSGTIELVKKGCWLDDFNCYDRQECVATEENPQVYFCCCEGNFCNERFTHLPEA
modifications: human ActRIIB soluble (extracellular), processed polypeptide sequence with the C-terminal 15 aa deleted (aa 20-119 of SEQ ID NO14)
Take B1: the “binding to activin relative to ActRIIB(20-134)-Fc” value with activin was “reduced binding”. Besides, the “binding to GDF-11 relative to ActRIIB(20-134)-Fc” value with GDF-11 is listed as “reduced binding”.

B2: A64: Fc fusion protein having the ActRIIB extracellular sequence with an alanine at position 64 of SEQ ID NO:2 (protein)
chain: SGRGEAETRECIYYNANWELERTNQSGLERCEGEQDKRLHCYASWANSSGTIELVKKGCWLDDFNCYDRQECVATEENPQVYFCCCEGNFCNERFTHLPEAGGPEVTYEPPPTAPTGGGTHTCPPCPAPELLGGPSVFLFPPKPKDTLMISRTPEVTCVVVDVSHEDPEVKFNWYVDGVEVHNAKTKPREEQYNSTYRVVSVLTVLHQDWLNGKEYKCKVSNKALPVPIEKTISKAKGQPREPQVYTLPPSREEMTKNQVSLTCLVKGFYPSDIAVEWESNGQPENNYKTTPPVLDSDGSFFLYSKLTVDKSRWQQGNVFSCSVMHEALHNHYTQKSLSLSPGK
modifications: fusion protein comprising a soluble extracellular domain of ActRIIB (A64; SEQ ID NO 3) fused to an Fc domain
Turning to B2, the affinity for activin entry with activin is “relatively low affinity”. Further, the “affinity for GDF-11” value with GDF-11 was “relatively low affinity”.

B3: R64: Fc fusion protein with an arginine at position 64 of the ActRIIB precursor amino acid sequence (protein)
chain: SGRGEAETRECIYYNANWELERTNQSGLERCEGEQDKRLHCYASWRNSSGTIELVKKGCWLDDFNCYDRQECVATEENPQVYFCCCEGNFCNERFTHLPEAGGPEVTYEPPPTAPTGGGTHTCPPCPAPELLGGPSVFLFPPKPKDTLMISRTPEVTCVVVDVSHEDPEVKFNWYVDGVEVHNAKTKPREEQYNSTYRVVSVLTVLHQDWLNGKEYKCKVSNKALPVPIEKTISKAKGQPREPQVYTLPPSREEMTKNQVSLTCLVKGFYPSDIAVEWESNGQPENNYKTTPPVLDSDGSFFLYSKLTVDKSRWQQGNVFSCSVMHEALHNHYTQKSLSLSPGK
modifications: fusion protein comprising a soluble extracellular domain of ActRIIB (R64; SEQ ID NO15) fused to an Fc domain
Consider B3, for which, in the data set with activin, the affinity for activin result was “low nanomolar to high picomolar range”. In addition, the “affinity for GDF-11” value with GDF-11 is given as “low nanomolar to high picomolar range”.
